In ChEMBL document CHEMBL1137871, “Discovery of orally active prostaglandin D2 receptor antagonists” (Bioorg Med Chem Lett, 2004) one finds Ki, inhibition in vivo and IC50 data, which are given here for 14 compounds.

In assay [1] the target is T1, Prostaglandin D2 receptor (Homo sapiens, UniProt Q13258).
T1 sequence (Q13258 whole entry): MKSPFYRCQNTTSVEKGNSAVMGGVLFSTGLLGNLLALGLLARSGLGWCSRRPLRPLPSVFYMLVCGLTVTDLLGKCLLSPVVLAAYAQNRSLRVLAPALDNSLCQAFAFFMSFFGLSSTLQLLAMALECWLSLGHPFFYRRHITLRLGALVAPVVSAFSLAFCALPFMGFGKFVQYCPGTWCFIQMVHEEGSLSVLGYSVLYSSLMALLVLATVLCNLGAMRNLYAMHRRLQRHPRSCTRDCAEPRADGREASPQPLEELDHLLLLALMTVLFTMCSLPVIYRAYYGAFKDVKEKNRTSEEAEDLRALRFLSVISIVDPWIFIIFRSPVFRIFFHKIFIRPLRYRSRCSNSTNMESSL
In words: Ability to inhibit the binding of [3H]PGD-2 radioligand to membranes of CHO cells stably expressing human Prostaglandin D2 receptor. In kind it is cell membranes.

Assay [2] has as its target T2, Prostaglandin E2 receptor EP3 subtype (Mus musculus, UniProt P30557).
T2 sequence (P30557 whole entry): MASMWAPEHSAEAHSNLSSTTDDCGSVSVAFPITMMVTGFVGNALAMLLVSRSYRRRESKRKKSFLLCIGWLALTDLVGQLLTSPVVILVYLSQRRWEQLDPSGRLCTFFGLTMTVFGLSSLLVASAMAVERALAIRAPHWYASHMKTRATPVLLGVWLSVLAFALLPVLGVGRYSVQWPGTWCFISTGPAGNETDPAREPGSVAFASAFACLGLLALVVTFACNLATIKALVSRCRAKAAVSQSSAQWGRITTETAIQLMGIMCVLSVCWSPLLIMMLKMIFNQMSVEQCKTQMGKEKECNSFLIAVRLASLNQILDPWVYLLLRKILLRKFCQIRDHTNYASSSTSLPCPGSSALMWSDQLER
The assay is described as follows: Ability to inhibit the binding of [3H]PGD-2 radioligand to membranes of CHO cells stably expressing mouse Prostaglandin E receptor EP3. In kind it is cell membranes.

The target of assay [3] is T3, Prostaglandin D2 receptor (Mus musculus, UniProt P70263).
T3 sequence (P70263 whole entry): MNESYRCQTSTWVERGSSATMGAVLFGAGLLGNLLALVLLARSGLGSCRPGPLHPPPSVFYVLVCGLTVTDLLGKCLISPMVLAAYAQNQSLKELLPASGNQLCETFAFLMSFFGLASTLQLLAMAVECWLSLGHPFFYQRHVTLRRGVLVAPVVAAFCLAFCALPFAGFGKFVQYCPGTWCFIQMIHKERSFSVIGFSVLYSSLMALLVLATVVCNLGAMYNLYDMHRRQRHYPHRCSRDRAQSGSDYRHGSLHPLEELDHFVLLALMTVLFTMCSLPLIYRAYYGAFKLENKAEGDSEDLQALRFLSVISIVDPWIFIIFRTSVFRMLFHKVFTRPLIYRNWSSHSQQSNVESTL
The assay is described as follows: Ability to inhibit the binding of [3H]PGD-2 radioligand to membranes of CHO cells stably expressing mouse Prostaglandin D2 receptor. It counts as cell membranes.

In another assay the test system is Cavia porcellus. In words: inhibitory effect of compound on PGD-2 (0.01%, 20 uL/eye) induced vascular permeability in guinea pig conjunctiva at an oral dose of 0.3 mg/kg.
The target in assay [4] is T1, Prostaglandin D2 receptor. The assay is described as follows: Effect on the increase in cAMP formation induced by PGD-2 in the presence of bovine serum albumin in CHO cells expressing human Prostaglandin D2 receptor. It counts as functional, cell-based. (In general: Changes in cAMP serve as a functional read-out for many G protein-coupled receptors.)
The target in assay [5] is Prostaglandin E2 receptor EP2 subtype (Mus musculus, UniProt Q62053). The assay is described as follows: Ability to inhibit the binding of [3H]-PGD-2 radioligand to membranes of CHO cells stably expressing mouse Prostaglandin E receptor EP2. It counts as cell membranes.
Sequence of Prostaglandin E2 receptor EP2 subtype (Q62053 whole entry): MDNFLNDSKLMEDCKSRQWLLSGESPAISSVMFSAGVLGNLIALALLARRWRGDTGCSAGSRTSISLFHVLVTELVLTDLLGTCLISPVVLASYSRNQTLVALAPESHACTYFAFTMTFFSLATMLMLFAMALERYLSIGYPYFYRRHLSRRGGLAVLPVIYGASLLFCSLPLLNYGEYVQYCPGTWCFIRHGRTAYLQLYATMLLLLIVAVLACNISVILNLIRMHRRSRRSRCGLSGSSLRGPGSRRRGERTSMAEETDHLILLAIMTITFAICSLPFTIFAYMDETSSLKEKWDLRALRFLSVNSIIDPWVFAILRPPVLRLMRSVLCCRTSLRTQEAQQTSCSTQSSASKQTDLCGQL
In assay [6] the target is Prostaglandin E2 receptor EP4 subtype (Mus musculus, UniProt P32240). In words: Ability to inhibit the binding of [3H]PGD-2 radioligand to membranes of CHO cells stably expressing mouse Prostaglandin E receptor EP4. It counts as cell membranes.
Sequence of Prostaglandin E2 receptor EP4 subtype (P32240 whole entry): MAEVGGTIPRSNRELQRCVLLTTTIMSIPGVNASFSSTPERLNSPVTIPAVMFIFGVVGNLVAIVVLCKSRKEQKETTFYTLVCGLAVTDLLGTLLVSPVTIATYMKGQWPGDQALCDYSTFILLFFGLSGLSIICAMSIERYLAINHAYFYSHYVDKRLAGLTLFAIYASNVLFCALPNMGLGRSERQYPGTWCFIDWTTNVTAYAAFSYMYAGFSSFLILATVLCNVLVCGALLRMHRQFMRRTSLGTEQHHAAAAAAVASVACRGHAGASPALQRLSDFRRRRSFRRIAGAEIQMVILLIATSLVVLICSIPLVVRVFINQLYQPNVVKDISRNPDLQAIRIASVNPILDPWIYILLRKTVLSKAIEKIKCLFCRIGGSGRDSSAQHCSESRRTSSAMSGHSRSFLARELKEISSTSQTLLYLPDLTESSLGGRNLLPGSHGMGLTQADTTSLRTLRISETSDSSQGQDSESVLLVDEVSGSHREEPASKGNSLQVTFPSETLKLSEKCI
The target of assay [7] is T4, Prostaglandin E2 receptor EP1 subtype (Mus musculus, UniProt P35375).
T4 sequence (P35375 whole entry): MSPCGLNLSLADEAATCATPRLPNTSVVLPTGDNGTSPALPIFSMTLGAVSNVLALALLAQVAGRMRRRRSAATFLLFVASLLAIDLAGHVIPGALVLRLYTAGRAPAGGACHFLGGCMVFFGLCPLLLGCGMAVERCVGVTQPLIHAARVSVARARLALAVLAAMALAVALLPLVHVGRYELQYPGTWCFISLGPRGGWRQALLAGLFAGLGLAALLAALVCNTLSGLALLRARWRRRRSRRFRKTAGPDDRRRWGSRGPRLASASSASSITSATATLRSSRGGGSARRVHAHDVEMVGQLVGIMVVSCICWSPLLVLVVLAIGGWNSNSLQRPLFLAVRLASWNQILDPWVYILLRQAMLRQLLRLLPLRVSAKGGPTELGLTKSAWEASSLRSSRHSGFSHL
In words: Ability to inhibit the binding of [3H]PGD-2 radioligand to membranes of CHO cells stably expressing mouse Prostaglandin E receptor EP1. It counts as cell membranes.

For assay [8], the target named is T3, Prostaglandin D2 receptor. In words: Effect on the increase in cAMP formation induced by PGD-2 in the presence of bovine serum albumin in CHO cells expressing mouse Prostaglandin D2 receptor. It counts as functional, cell-based.

The structures appear in SMILES notation.

`Cc1cc2c(CC(=O)O)cccc2n1C(=O)c1ccc(OC[C@@H]2CN(C)c3ccc(F)cc3O2)cc1`: the Ki (as a rule, the dissociation constant of the complex between target and ligand, obtained from inhibition or displacement) was 5.3 nM in [1]; 1700 nM in assay [2]; 23 nM in [3]; 2100 nM in [5]; over 10000 nM in assay [6]; over 10000 nM in assay [7]. Also, the inhibition in vivo – broadly, the drop in the measured response relative to a control, in per cent – at 0.3 mg/kg in the assay on Cavia porcellus amounted to 60%. For the same compound, the IC50 (usually the concentration that inhibits the measured activity by half) in assay [4] was determined as 0.81 nM.
Turning to `Cc1cc2c(CC(=O)O)cccc2n1C(=O)c1ccc(OCC2Cc3ccccc3O2)cc1` (stereo unspecified), the inhibitory constant (Ki) was 20 nM in [1]; 980 nM in assay [2]; 20 nM in [3]; 450 nM in assay [5]; over 10000 nM in assay [6]; 7800 nM in [7]. Moreover, the 50% inhibitory concentration (IC50) in [4] was found to be 30 nM.
In the case of `Cc1cc2c(CC(=O)O)cccc2n1C(=O)c1ccc(OCCCc2ccccc2)cc1`, the inhibition constant Ki is 3300 nM in assay [2], 170 nM in [3], 2100 nM in assay [6] and 7700 nM in [7].
Consider `Cc1cc2c(CC(=O)O)cccc2n1C(=O)c1ccc(OCCc2ccccc2)cc1`, for which the inhibition constant (Ki) was 2200 nM in assay [2], 1300 nM in assay [5], 1900 nM in assay [6] and 400 nM in assay [7].
On to `Cc1cc2c(CC(=O)O)cccc2n1C(=O)c1ccc(OC[C@H]2COc3ccccc3O2)cc1`, for which the Ki in assay [1] was 130 nM; in assay [2] it was over 10000 nM; in assay [3], 120 nM; in [5], 1300 nM; in assay [6] it was 1300 nM; in assay [7] it was 2300 nM. Besides, the IC50 in assay [4] worked out at 270 nM.
On to `Cc1cc2c(CC(=O)O)cccc2n1C(=O)c1ccc(OCC2Oc3ccccc3O2)cc1`, for which the inhibition constant Ki is 30 nM in [1]; 750 nM in assay [2]; 9.4 nM in [3]; 250 nM in assay [5]; over 10000 nM in assay [6]; 780 nM in assay [7]. In addition, the half-inhibitory concentration (IC50) in assay [4] came out at 50 nM.
In the case of `Cc1cc2c(CC(=O)O)cccc2n1C(=O)c1ccc(OCCOc2ccccc2)cc1`, the Ki in assay [1] was 290 nM; in [2] it was over 10000 nM; in assay [3], 10 nM; in assay [5], 540 nM; in [6], over 10000 nM; in assay [7] it was 5600 nM. Moreover, the IC50 in assay [4] worked out at 250 nM; in [8], 50 nM.
Regarding `Cc1cc2c(CC(=O)O)cccc2n1C(=O)c1ccc(OC[C@@H]2CN(C)c3ccccc3O2)cc1`, the inhibition constant Ki in assay [1] is 3.5 nM; in [2] it was 1700 nM; in assay [3], 10 nM; in assay [5], 100 nM; in assay [6], over 10000 nM; in assay [7], 6200 nM. In addition, the concentration for half-maximal inhibition (IC50) in assay [4] was 1.2 nM.
Regarding `Cc1cc2c(CC(=O)O)cccc2n1C(=O)c1ccc(OCc2ccccc2)cc1`, the inhibition constant (Ki) in assay [2] is 1200 nM; in [3] it was 60 nM; in [5], 330 nM; in assay [6], over 10000 nM; in assay [7], 1200 nM. Also, in [8], the IC50 was 1300 nM.
On to `Cc1cc2c(CC(=O)O)cccc2n1C(=O)c1ccc(OC[C@@H]2COc3ccccc3O2)cc1`, for which the Ki was 10 nM in assay [1]; over 10000 nM in assay [2]; 10 nM in assay [3]; 60 nM in assay [5]; over 10000 nM in assay [6]; 2000 nM in assay [7]. The concentration for half-maximal inhibition (IC50) in assay [4] came to 30 nM.
Regarding `CCCCOc1ccc(C(=O)n2c(C)cc3c(CC(=O)O)cccc32)cc1`, the Ki was 3300 nM in assay [2]; 10 nM in [3]; 2000 nM in assay [5]; over 10000 nM in assay [6]; over 10000 nM in assay [7]. In assay [8], the IC50 stood at 300 nM.
For the compound `Cc1cc2c(CC(=O)O)cccc2n1C(=O)c1ccc(OCC2CCc3ccccc3O2)cc1` (stereo unspecified), the Ki in assay [1] is 50 nM; in assay [2] it was over 10000 nM; in assay [3], 60 nM; in [5] it was 90 nM; in assay [6] it was 3100 nM; in assay [7], 3800 nM. For the same compound, in assay [4], the IC50 was 30 nM.
For the compound `Cc1cc2c(CC(=O)O)cccc2n1C(=O)c1ccc(OCC2COc3ccccc3C2)cc1` (stereo unspecified), the inhibition constant Ki in assay [1] was 390 nM; in assay [2], over 10000 nM; in [3], 180 nM; in assay [5], 280 nM; in assay [6] it was 3500 nM; in assay [7], over 10000 nM.
On to `Cc1cc2c(CC(=O)O)cccc2n1C(=O)c1ccc(OC[C@H]2CN(C)c3ccccc3O2)cc1`, for which the Ki was 170 nM in assay [1]; over 10000 nM in assay [2]; 230 nM in [3]; 410 nM in assay [5]; over 10000 nM in assay [6]; over 10000 nM in assay [7]. In addition, the IC50 in assay [4] was 10 nM.
